Legend:
[1] = tested on: IFNγ production in human whole blood; experiment: Ex vivo LPS-stimulated human whole blood, IFNγ; assay type: cell-based; settings: LPS 100 ng/ml, 22 hours, mean of two donors
Method: (§1) Venous blood from human donors was collected as 10 ml aliquots in tubes containing sodium heparin (BD Vacutainer from Becton Dickinson and Company, Franklin Lakes, N.Y.). Blood was added to sterile polystyrene round bottom 96-well tissue culture plates (Corning Costar) at 100 μl/well, omitting the outside wells. Media (RPMI Medium 1640 with L-glutamine, Invitrogen Corporation, Carlsbad, Calif.) was added to the blood in 90 μl aliquots for a total volume of 190 μl. Outside wells were filled with 200 μl of media. Blood was placed in a humidified 37° C. incubator with 5% CO2 while compounds were prepared (nearly 60 minutes).
(§2) Compounds were prepared from 10 mM stock solutions in dimethylsulfoxide (DMSO, Sigma-Aldrich). […] Final DMSO and ethanol concentrations in the assay were 0.1% and 1.5%. The samples were gently triturated twice to mix and replaced in the incubator. LPS stock (E. coli serotype 0111:B4, Sigma-Aldrich), stored in aliquots of 100 μg/ml in RPMI at −20° C., was diluted 1/50 in RPMI to make a working stock solution. After 60 minutes of incubation, 10 μl of the prepared LPS working stock was added to the blood to a final concentration of 100 ng/ml, omitting wells to be used as negative control. The samples were again gently triturated and the plates incubated overnight for 22 hours. Following incubation, the blood was centrifuged at 1500×g for 5 minutes and the plasma removed to either freeze at −20° C. or assay for cytokine release.
(§3) IL-1β, IFNγ, IL-6, and TNFα protein levels were measured using Meso Scale assay kits (Meso Scale Discovery, Gaithersburg, Md.). Reagents were allowed to come to room temperature. Meso Scale plates were blocked with 30 μl of human plasma/serum assay diluent with gentle shaking for 60 minutes at room temperature. Plates were washed 3× with wash buffer (PBS, Invitrogen Corporation, with 0.05% Tween-20, Sigma-Aldrich). Calibrators for standard curves were prepared in human plasma/serum assay diluent as a […] serial dilution to achieve final concentrations ranging from 50000 pg/ml to 3.2 pg/ml. Samples and calibrators were added at 20 μl/well, then incubated at room temperature with gentle shaking for 90 minutes. Plates were again washed 3 times with wash buffer. Detection antibody was diluted in human plasma/serum antibody diluent to 1 μg/ml and added to the plate at 20 μl/well. Plates were incubated as before for 60 minutes and washed again. Read Buffer T<4×) was diluted 1:1 with mqH2O to 2 times concentration and 150 μl added to each well. Plates were analyzed on the SECTOR Imager 6000 (Meso Scale Discovery) to generate raw signal values.
(§4) IL-1β, IFN-γ, IL-6, and TNFα sample values were verified to be within the calibrator standard curves. Individual values were compared to positive and negative controls (vehicle treated blood with LPS and vehicle treated blood without LPS, respectively) to generate % inhibition. Triplicate values were averaged for each donor. The values for two donors were averaged (only one donor was used for IL-1β) and graphed using 4-parameter fit curves in the GraFit 5.0.11 application.

[2] = tested on: TNFα production in human whole blood; experiment: Ex vivo LPS-stimulated human whole blood, TNFα; assay type: cell-based; settings: LPS 100 ng/ml, 22 hours, mean of two donors
Method: as §1, §2, §3, §4

[3] = tested on: Cortical bone formation rate (BFR); experiment: Cortical bone histomorphometry, bone formation rate (BFR); assay type: in vivo; settings: AUC 0-4 hr, mice
Method: During the in-life portion of each study, mice received two intraperitoneal (i.p.) injections (20 mg/kg, […]) of calcein (C-0875; Sigma-Aldrich, St. Louis, Mo.) on days 1 and 26 for bone histomorphometry measurements. Calcein incorporates into the bone mineral and allows measurement of bone formation rate. Calcein was dissolved in 2% sodium bicarbonate. During the tissue harvest, the left tibiae were excised and cleaned for cortical histomorphometry measurements. After all skin and muscle were removed, tibiae were placed in 70% ethanol 4° C.) in the dark for a minimum of 24 hours.
Ground transverse sections were used for histomorphometric analysis of cortical bone. Bones were sectioned using a low-speed saw (Isomet, Buehler, Lake Bluff, Ill.) equipped with a diamond wafer blade. The end of each tibia was removed proximal to tibia-fibula synostosis and a […] cross-section was cut. Using a roughened glass plate and a cork, sections were ground to […] until transparent and all labels were distinguishable under a fluorescent microscope. Sections were dehydrated using the following solutions for a minimum of two minutes each: 1) 70% ethanol, 2) 95% ethanol, 3) 100% ethanol, 4) 50/50 ethanol/xylene, and 5) xylene (twice) (#534056; Sigma-Aldrich, St. Louis, Mo.). Sections were mounted using Eukitt Quick Mounting Medium (#03989, Sigma-Aldrich, St. Louis, Mo.) after which coverslip was applied. Using the Osteomeasure Bone Analysis Program (Osteometrics, Inc., Decatur, Ga.), bone formation rate was calculated by tracing the 1st and […] fluorescent labels and the inner and outer perimeter of the bone. Bone formation rate was calculated by the following equation: (Inter-label width/Label interval)*(Labeled perimeter/Bone perimeter). At least five samples were measured from each treatment group in each study.

Question: Which results are given for `C[C@]12C=CC(=O)C=C1CC[C@@H]1[C@@H]2[C@@H](O)C[C@@]2(C)[C@H]1CC[C@]2(O)C(=O)CO` [Prednisolone]?
Answer: inhibition at 0.000457247 µM ([1]; 0.457247 nM): 4.93%; inhibition at 0.00137174 µM ([1]; 1.371742 nM): 10.9%; inhibition at 0.00411523 µM ([1]; 4.115226 nM): 5.16%; inhibition at 0.0123457 µM ([1]; 12.34568 nM): 25.7%; inhibition at 0.037037 µM ([1]; 37.03704 nM): 63.5%; inhibition at 0.111111 µM ([1]; 111.1111 nM): 95%; inhibition at 0.333333 µM ([1]; 333.3333 nM): 99.8%; inhibition at 1 µM ([1]; 1000 nM): 100%; inhibition at 0.00137174 µM ([2]; 1.371742 nM): 6.61%; inhibition at 0.00411523 µM ([2]; 4.115226 nM): 5.31%; inhibition at 0.0123457 µM ([2]; 12.34568 nM): 12.9%; inhibition at 0.037037 µM ([2]; 37.03704 nM): 27.7%; inhibition at 0.111111 µM ([2]; 111.1111 nM): 62.4%; inhibition at 0.333333 µM ([2]; 333.3333 nM): 89%; inhibition at 1 µM ([2]; 1000 nM): 93.9%; Cortical bone formation rate (BFR) EAUC50 [3]: 90 ng·h/mL; Cortical bone formation rate (BFR) EAUC80 [3]: 600 ng·h/mL

Source: patent US7786097B2, “Tricyclic compounds, compositions and methods” (Pfizer Inc., priority 2007, dated 2010)
